Test results taken from patent US7592350B2, “Polycyclic compounds as potent alpha2-adrenoceptor antagonists” (Orion Corporation, priority 2002, dated 2009).

Key:
alpha2C-adrenoceptor [1] = molecular target: T1, alpha2C-adrenoceptor (Homo sapiens, UniProt P18825); test: Inhibition of epinephrine-stimulated 35S-GTPγS binding, CHO cell membranes (alpha2C); assay type: biochemical; parameters: expressed in transfected cells; host or cells: CHO cells (membranes); settings: mean, read-out: Antagonist potency (KB) alpha2C
T1 sequence (P18825 1-462): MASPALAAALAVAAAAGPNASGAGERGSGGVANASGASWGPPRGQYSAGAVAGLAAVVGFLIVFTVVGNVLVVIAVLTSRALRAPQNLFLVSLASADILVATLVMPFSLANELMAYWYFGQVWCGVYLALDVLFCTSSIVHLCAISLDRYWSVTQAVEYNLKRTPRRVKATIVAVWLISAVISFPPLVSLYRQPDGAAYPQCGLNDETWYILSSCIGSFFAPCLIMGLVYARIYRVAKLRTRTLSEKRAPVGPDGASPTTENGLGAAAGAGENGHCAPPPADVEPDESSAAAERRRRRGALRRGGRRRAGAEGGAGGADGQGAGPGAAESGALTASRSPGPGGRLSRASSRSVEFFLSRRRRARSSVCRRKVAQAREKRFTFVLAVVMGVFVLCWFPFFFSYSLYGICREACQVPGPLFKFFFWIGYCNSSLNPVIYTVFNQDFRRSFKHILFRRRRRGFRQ
Method: (§1) The functional activities of two compounds (K and L) displaying alpha2C-selectivity in binding experiments were determined as the abilities of the compounds to inhibit the epinephrine-stimulated binding of ^35S-GTPγS to G proteins (Jasper, J. R. et al., Biochem. Pharmacol. 55(7) (1998) 103544) in membranes of CHO cells stably transfected with the human alpha2-adrenoceptor subtypes.

alpha2C-adrenoceptor [2] = molecular target: T1, alpha2C-adrenoceptor; test: Radioligand binding to alpha2-adrenoceptors (alpha2C); settings: calculated Ki from radioligand binding assays; read-out: Binding affinity (Ki) alpha2C
mice = test: Antagonism of alpha2-agonist (dexmedetomidine)-induced sedation; assay type: in vivo; settings: dexmedetomidine 50 nmol/kg s.c., antagonist pre-treatment
Method: (veh=vehicle). (***p<0.001, compared to Dex+vehicle)
One of the prominent effects of non-selective alpha2-agonists in rodents is their ability to cause profound sedation. This effect, measured as locomotor inhibition by the alpha2-agonist dexmedetomidine was not modified in mice with genetically altered alpha2C-expression (Scheinin, M. et al., Life Sci 68(19-20) (2001) 2277-85). […] This assumption was tested in experiment, where dexmedetomidine was administered to mice pre-treated with the alpha2C-antagonists compound K or compound L, or the subtype non-selective antagonist atipamezole (Haapalinna, A. et al., Naunyn-Schmiedeberg's Arch. Pharmacol. 356 (1997) 570-582).

alpha2A-adrenoceptor [3] = molecular target: T2, alpha2A-adrenoceptor (Homo sapiens, UniProt P08913); test: Radioligand binding to alpha2-adrenoceptors (alpha2A); settings: calculated Ki from radioligand binding assays; read-out: Binding affinity (Ki) alpha2A
T2 sequence (P08913 1-465): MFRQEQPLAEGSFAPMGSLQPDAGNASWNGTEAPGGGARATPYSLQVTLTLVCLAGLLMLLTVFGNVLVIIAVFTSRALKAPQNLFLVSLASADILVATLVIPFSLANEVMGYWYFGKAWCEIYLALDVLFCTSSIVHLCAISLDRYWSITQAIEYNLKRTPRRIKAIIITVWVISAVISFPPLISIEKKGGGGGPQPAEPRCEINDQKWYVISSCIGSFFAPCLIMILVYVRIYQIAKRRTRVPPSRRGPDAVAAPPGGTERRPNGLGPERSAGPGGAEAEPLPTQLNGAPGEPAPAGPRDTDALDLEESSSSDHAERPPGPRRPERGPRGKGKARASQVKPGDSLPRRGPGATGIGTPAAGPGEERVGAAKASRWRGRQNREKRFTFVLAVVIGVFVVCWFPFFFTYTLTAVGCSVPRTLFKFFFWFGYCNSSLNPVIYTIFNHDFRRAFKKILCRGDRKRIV

rats = test: Forced swimming test; assay type: in vivo; settings: 3 micromol/kg, compared to vehicle
Method: Forced swimming test (FST, i.e. Porsolt's test) is generally used in the pharmacological screening of new-antidepressants. In this test, antidepressants increase the animals' activity compared to non-treated controls. […] Therefore, it was tested, whether a selective alfa2C-antagonist would have antidepressant-like activity (e.g. activity-increasing property) in the FST. […] Also the positive control substances desipramine and fluoxetine (clinically effective antidepressant agents) were active.

alpha2B-adrenoceptor [4] = molecular target: T3, alpha2B-adrenoceptor (Homo sapiens, UniProt P18089); test: Inhibition of epinephrine-stimulated 35S-GTPγS binding, CHO cell membranes (alpha2B); assay type: biochemical; parameters: expressed in transfected cells; host or cells: CHO cells (membranes); settings: mean, read-out: Antagonist potency (KB) alpha2B
T3 sequence (P18089 1-450): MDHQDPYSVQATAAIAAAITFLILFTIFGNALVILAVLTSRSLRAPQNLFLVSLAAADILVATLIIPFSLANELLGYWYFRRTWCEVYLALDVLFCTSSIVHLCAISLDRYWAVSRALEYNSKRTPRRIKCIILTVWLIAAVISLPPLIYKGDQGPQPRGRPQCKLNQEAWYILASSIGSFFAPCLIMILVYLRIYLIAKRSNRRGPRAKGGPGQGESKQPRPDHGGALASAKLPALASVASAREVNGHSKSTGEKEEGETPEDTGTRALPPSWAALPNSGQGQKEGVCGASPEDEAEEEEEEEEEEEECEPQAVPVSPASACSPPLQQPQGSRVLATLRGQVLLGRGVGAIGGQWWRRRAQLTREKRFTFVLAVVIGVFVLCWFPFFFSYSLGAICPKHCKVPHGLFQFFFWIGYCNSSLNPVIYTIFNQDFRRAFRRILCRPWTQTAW
Method: as §1

alpha2B-adrenoceptor [5] = molecular target: T3, alpha2B-adrenoceptor; test: Radioligand binding to alpha2-adrenoceptors (alpha2B); settings: calculated Ki from radioligand binding assays; read-out: Binding affinity (Ki) alpha2B
Description: Examples of the alpha2-adrenoceptor binding affinities of the compounds including in the present invention are shown in the Table 1. Many of these compouinds are high-affinity ligands for all the alpha2-receptors, but some of them display selectivity for the alpha2C-subtype.

alpha2A-adrenoceptor [6] = molecular target: T2, alpha2A-adrenoceptor; test: Inhibition of epinephrine-stimulated 35S-GTPγS binding, CHO cell membranes (alpha2A); assay type: biochemical; parameters: expressed in transfected cells; host or cells: CHO cells (membranes); settings: mean, read-out: Antagonist potency (KB) alpha2A
Method: as §1

CCC1(O)CCCN2CCc3c([nH]c4ccccc34)C21 (stereo not drawn) [Compound K, 1α-Ethyl-1,2,3,4,6,7,12,12bβ-octahydroindolo[2,3-]quinolizin-1-ol] was tested, and the Kb (alpha2C-adrenoceptor [1]) was 23 nM, the Ki (alpha2C-adrenoceptor [2]) was 31 nM and the “Antagonism of dexmedetomidine-induced sedation (locomotor inhibition)” value (mice) was “did not have clear effects”. The Ki (alpha2A-adrenoceptor [3]) was 359 nM, the “Activity in the forced swimming test” value (rats) was “increased activity” and the Kb (alpha2B-adrenoceptor [4]) was 351 nM. The Ki (alpha2B-adrenoceptor [5]) was 245 nM and the Kb (alpha2A-adrenoceptor [6]) was 295 nM.
